The values that follow are results of earlier work, collected in paper PMC3160894, “Isolation and Characterization of CvIV4: A Pain Inducing α- Scorpion Toxin” (PLoS ONE, 2011).

The series relates to Nav1.7. The settings on record: ref [19], [20]. An excerpt:
Given that buthid scorpions produce toxins that bind Na^+ channels in excitable membranes, it is plausible that their venom induces pain by initiating action potentials in nociceptors. Because some human pain disorders involve Na^+ channels expressed in nociceptors, [15], there has been an effort, albeit limited, to determine the components in buthid venom that induce pain with the goal of isolating peptides that discriminate among the DRG-expressed VGSCs. […] Because β-toxins make Na^+ channel ... || CvIV4 also slowed the fast inactivation and produced a persistent Na^+ current in rNav1.2, rNav1.3 and rNav1.4. […] Given that CvIV4 and CeII8 are similar in structure but differ in function and isoform selectivity, a comparison of these two toxins should improve our understanding of the structural characteristics that determine New World scorpion toxin selectivity and function.

In the case of “AahII: α-toxin from Androctonus australis Hector; GenBank P01484”, the “Effect on fast inactivation of Nav1.7” value was “slow the fast inactivation of Nav1.7”.
As to “ODI: α-toxin from Odonthobuthus doriae; GenBank P84646”, the “Effect on fast inactivation of Nav1.7” value was “slow the fast inactivation of Nav1.7”.
With “LqhIII: α-toxin from Leiurus quinquestriatus hebraeus; GenBank P59355”, the “Effect on fast inactivation of Nav1.7” value is “slow the fast inactivation of Nav1.7”.
